Bounds are passed on as bounds.

The source of these data is patent US20060264411A1, “Control of biofilm formation” (priority 2005, published 2006).

The test system of test [1] is bacterial invasion. The test can be described thus: Bacterial invasion statement of Example 9. As to conditions: within 15 minutes of administration.
The test system of test [2] is S. mutans 25175. The test can be described thus: Biofilm growth inhibition in polycarbonate tubes. It is filed as cell-based. The note with it: Streptococcus mutans, 40 μg/mL.

What is called inhibition is the drop in the measured response relative to a control, in per cent. A high value points to a response far below the control. For `C[C@H]1[C@H](C)CC[C@]2(C(=O)O)CC[C@]3(C)C(=CC[C@@H]4[C@@]5(C)C[C@@H](O)[C@H](O)[C@@](C)(CO)[C@@H]5CC[C@]43C)[C@H]12` [Asiatic acid, asiatic acid], the “bacterial invasion (in words)” value in test [1] is listed as “significantly reduced bacterial invasion”. In test [2], the inhibition at 40 µg/mL is above 75%.
